Measured values taken from article PMC4485020 (The Journal of General Physiology, 2015).
pEC50: −log10 of the molar value.

Target: hTRPM3 (transient receptor potential melastatin 3) (Homo sapiens, UniProt Q9HCF6)
Assay type: cell-based

Sequence of hTRPM3 (transient receptor potential melastatin 3) (Q9HCF6 whole entry): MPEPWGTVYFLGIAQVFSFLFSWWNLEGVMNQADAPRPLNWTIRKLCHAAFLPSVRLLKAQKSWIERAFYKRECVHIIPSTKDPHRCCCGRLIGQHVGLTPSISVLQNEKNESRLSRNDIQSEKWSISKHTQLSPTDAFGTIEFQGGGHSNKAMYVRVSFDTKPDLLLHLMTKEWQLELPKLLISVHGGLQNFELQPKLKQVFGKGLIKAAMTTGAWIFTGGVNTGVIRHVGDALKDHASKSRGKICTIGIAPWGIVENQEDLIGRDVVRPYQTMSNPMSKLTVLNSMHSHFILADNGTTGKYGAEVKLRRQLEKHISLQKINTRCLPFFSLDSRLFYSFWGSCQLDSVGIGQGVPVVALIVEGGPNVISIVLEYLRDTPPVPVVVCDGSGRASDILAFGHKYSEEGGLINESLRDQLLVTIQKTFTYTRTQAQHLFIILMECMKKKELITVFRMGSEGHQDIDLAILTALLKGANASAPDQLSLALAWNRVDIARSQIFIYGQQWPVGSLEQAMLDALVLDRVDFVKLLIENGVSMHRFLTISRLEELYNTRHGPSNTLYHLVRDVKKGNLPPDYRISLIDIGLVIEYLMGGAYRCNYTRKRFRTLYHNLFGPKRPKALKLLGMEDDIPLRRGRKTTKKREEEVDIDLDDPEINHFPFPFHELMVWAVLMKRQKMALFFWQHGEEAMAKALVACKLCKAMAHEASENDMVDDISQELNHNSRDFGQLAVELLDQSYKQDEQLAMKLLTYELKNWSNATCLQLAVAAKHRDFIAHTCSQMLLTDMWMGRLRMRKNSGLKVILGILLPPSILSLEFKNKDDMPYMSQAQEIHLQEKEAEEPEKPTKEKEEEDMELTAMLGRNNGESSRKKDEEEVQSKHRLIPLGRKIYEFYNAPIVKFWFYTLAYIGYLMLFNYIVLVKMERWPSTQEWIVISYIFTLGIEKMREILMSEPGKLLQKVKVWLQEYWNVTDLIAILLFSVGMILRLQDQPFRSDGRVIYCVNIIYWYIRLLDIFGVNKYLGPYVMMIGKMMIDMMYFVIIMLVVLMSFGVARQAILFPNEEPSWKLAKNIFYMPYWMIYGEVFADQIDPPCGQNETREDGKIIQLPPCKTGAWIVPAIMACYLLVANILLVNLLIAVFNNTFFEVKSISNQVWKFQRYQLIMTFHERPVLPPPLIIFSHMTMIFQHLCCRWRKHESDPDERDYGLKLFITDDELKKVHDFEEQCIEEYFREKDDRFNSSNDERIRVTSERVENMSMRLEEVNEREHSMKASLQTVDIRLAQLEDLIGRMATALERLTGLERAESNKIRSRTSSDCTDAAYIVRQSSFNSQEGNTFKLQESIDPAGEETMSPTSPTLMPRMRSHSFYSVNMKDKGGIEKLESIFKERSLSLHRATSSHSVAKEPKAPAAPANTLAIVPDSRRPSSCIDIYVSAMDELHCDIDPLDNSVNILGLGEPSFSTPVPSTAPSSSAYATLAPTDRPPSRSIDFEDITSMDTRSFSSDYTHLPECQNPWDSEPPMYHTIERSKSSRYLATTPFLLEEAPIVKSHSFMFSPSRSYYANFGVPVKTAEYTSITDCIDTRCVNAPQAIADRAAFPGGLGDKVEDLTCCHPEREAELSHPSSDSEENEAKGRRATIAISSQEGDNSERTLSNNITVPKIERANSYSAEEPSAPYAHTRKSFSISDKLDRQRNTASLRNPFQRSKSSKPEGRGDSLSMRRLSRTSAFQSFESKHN

pEC50: 4.74
SMILES: CCCCCCCC(=O)OC[C@H](COP(=O)(O)O[C@@H]1[C@H](O)[C@H](O)[C@@H](OP(=O)(O)O)[C@H](OP(=O)(O)O)[C@H]1O)OC(=O)CCCCCCC [diC8 PI(4,5)P2]
